Source: BindingDB's records for doi:10.1007/s00044-011-9583-7 (n/a, 2012)

Assay: Inhibition of rat intestinal alpha-glucosidase using para-nitrophenyl-alpha-D-glucopyranoside as substrate incubated for 5 min prior to substrate addition measured after 5 min by spectrophotometric analysis

| SMILES | IC50 [µM] |
| --- | --- |
| O=C(/C=C/c1ccccc1)c1cc2ccoc2cc1O | 14.5 |
| O=C(/C=C/c1ccc(O)c(O)c1)c1cc2ccoc2cc1O | 18.9 |
| COc1cc(OC)c(OC)cc1/C=C/C(=O)c1cc2ccoc2cc1O | 13.4 |
| COc1ccc(/C=C/C(=O)c2ccc3occc3c2O)c(OC)c1OC | 17.3 |
| COc1ccc(/C=C/C(=O)c2ccc3occc3c2O)cc1OC | 5 |
| O=C(/C=C/c1ccc(O)cc1)c1ccc2occc2c1O | 10.9 |

Further compounds by falling IC50, results first:

| IC50 [µM] | SMILES |
| --- | --- |
| 15.2 | O=C(/C=C/c1ccc(O)c(O)c1)c1ccc2occc2c1O |
| 10.8 | COc1ccc(/C=C/C(=O)c2cc3ccoc3cc2O)cc1OC |
| 9.2 | COc1ccc(/C=C/C(=O)c2ccc3occc3c2O)cc1 |
